Laboratory results reported in US10456434B2, “Extracts obtained from cell line cultures from plants belonging to the Oleaceae family (e.g. Syringa vulgaris), their preparation and use” (CRODA ITALIANA S. P. A., priority 2005, dated 2019).
In brackets after ≈: the same amount, converted by molar mass.

Legend:
[1] = molecular target: T1, 5 alpha reductase type II (Homo sapiens, UniProt P31213); experiment: Type II 5 alpha reductase inhibition (14C testosterone conversion); assay type: biochemical; details: pH 5.0
T1 construct: made in house; host or cells: genetically modified yeast
T1 sequence (P31213 1-254): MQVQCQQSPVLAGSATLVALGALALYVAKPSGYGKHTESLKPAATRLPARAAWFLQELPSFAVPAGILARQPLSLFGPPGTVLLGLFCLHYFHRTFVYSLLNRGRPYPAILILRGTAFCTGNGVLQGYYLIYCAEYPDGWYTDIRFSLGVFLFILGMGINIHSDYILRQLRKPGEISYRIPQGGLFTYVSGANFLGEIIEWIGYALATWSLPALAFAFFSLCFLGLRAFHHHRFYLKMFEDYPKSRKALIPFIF
From the text: Determination of the 5 alpha reductase inhibitory activities by Syringa vulgaris extracts, verbascoside and isoverbascoside in comparison to Serenoa repens extracts. Said determination, has been performed using enzymes (5 alpha reductase, type I and type II) produced by genetically modified yeast. Enzyme activities have been determined in the presence of Syringa vulgaris and Serenoa repens extracts, verbascoside isoverbascoside.
Determination of the type II 5 alpha reductase activity has been performed in an analogous manner to that just described, with the exception of a different pH value for the 0.1 M Tris-citrate buffer (pH 5.0).
In both assays, the steroids have been extracted using 5 ml of methylene chloride. The extracts have then been dried under a stream of nitrogen and the dried residues obtained have, been dissolved in 20 μl of a chloroform-methanol mixture (2:1 v/v). An aliquot of said mixture has been deposited on the surface of a silica gel TLC plate. […] For quantification of the results, the spots have been scraped from the TLC plate and extracted with 2 ml of ethyl acetate. The extracts obtained have been analysed, using scintillation fluid, with the aid of a Wallach […]. The enzyme activity has been calculated from the percentage conversion (C %) of the substrate into final product:
C %=[counted product/(counted substrate+product)]×100.

PC12 cells = experiment: Protection against oxidative stress induced cell death in PC12 cells; assay type: cell-based, rat; details: 72 hours
From the text: This assay has the aim of determining the protective capacity, of Syringa vulgaris extracts, in relation to oxidative stress induced cell death in rat pheochromocytoma cell cultures (PC12 cell line).
The assay has been performed as described in the literature (Echevery C. et al. Cytoprotection by neutral fraction of tannat red wine against oxidative stress-induced cell death. J. Agric. Food Chem., 2004, 52(24): 7395-9. Ochiai T. et al. Crocin prevents the death of rat pheo-chromycitoma (PC12) cells by its antioxidant effects stronger than those of alpha-tocopherol. Neurosci. Lett., 2004, 362(1):61-4).
The results obtained are summarised in table 11, and are expressed as the ratio between the numbers of viable cells after 72 hours in the samples with respect to control.

whole blood = experiment: Whole blood luminol dependent chemiluminescence; assay type: cell-based; details: 0.5 h; fresh human blood, 30 minutes, 37° C.; read-out: Whole blood chemiluminescence (IC 50 mg/ml)
Experimental: Anti-inflammatory activity has been assessed by measuring luminol dependent chemiluminescence generated by free radicals released from whole blood and from white blood cells. The assay has been performed using the following protocol: 10 μl of fresh human blood is mixed with 0.980 ml of Hanks saline solution containing 5×10^−5 M luminol and the test sample (at various concentrations). The chemiluminescent response is recorded continuously for 30 minutes at a temperature of 37° C. The results are expressed as IC50 (mg/ml), i.e. as the minimum sample, concentration inhibiting chemiluminescence by 50% with respect to the control. To isolate white blood cells (WBC) from whole blood one proceeds in the following manner: 1 ml of fresh blood is layered onto a Hipaque gradient (p=1.119) and centrifuged at 250×g for 60 minutes at room temperature. Following centrifugation, the pellet containing the white blood cells is washed twice, using a large volume of cold Hanks saline solution. Finally, the washed WBCs are resuspended in 01 ml di HBSS containing foetal calf serum. 10^6 WBC are added to a chemiluminometer cuvette. 10 μl of PMA (final concentration equal to 10 nM) are added to induce the formation of free radicals. The chemiluminescent response is recorded continuously for 30 minutes at a temperature of 37° C. […]

[2] = Superoxide anion chemiluminescent assay (hypoxanthine/xanthine oxidase); assay type: biochemical; details: mean of 6 independent assays
From the text: (§1) The superoxide anion has been measured by a chemiluminescent assay based on the hypoxanthine (HPX)/xanthine oxidase (XOD) reaction using the Lumimax Superoxide Anion Detection Kit (Stratagene, La Jolla, Calif., USA) and following the manufacturer's instructions. Hydroxyl radical scavenger activity has been measured by means of the Fenton reaction for the production of hydroxyl radicals and chemiluminescent dosage (using a Victor^3 chemiluminometer, Wallac, Finland) with luminol. Peroxynitrite ions have been determined by means of dosage with a spontaneous generator of peroxynitrites (3-morpholinosidnonimine hydrochloride; SIN-1) and a stable reagent for the nitroxyl ions (2-(4-carboxyphenyl)-4,4,5,5-tetramethylimidazoline-1-oxyl-3-oxide potassium salt PTIO spin trap) then dosed by means of electron spin resonance (ESR) using a. Nippon Denshi JES-FR30.
Extract 1 and Extract 2 listed in Table are derived from Syringa vulgaris cell cultures. […] The results are expressed as the concentration inhibiting 50% of activity (IC50). The values reported are the means of 6 independent assays.

[3] = Fe2+ induced lipid peroxidation (thiobarbituric acid); assay type: biochemical; details: mean of 6 independent assays
From the text: as §1, with “Syringa vulgaris Extracts 1 and 2, prepared as described in examples 1 and 2, have been used to assess in vitro antioxidant action with specific oxygen radical generating systems such as the superoxide anion (O2^−), the hydroxyl radical (HO), the peroxynitrite radical (ONOO^−) and the inhibition of lipid peroxidation. The” for “The”, “JES-FR30. […].” for “JES-FR30.”
(§2) Extract 1 and Extract 2 listed in Table are derived from Syringa vulgaris cell cultures. In said extracts, verbascoside is present at 0.82% and 35% by weight respectively. […]

[4] = Hydroxyl radical scavenger activity (Fenton reaction, luminol chemiluminescence); assay type: biochemical; details: mean of 6 independent assays
From the text: as §1, with “Syringa vulgaris Extracts 1 and 2, prepared as described in examples 1 and 2, have been used to assess in vitro antioxidant action with specific oxygen radical generating systems such as the superoxide anion (O2^−), the hydroxyl radical (HO), the peroxynitrite radical (ONOO^−) and the inhibition of lipid peroxidation. The” for “The”, “JES-FR30. […].” for “JES-FR30.”
as §2

## CC1OC(OC2C(O)C(COC(=O)C=Cc3ccc(O)c(O)c3)OC(OCCc3ccc(O)c(O)c3)C2O)C(O)C(O)C1O [Isoverbascoside, b-(3,4-dihydroxyphenyl)-ethyl-O-α-L-ramnopyranosyl(1″-3′)-b-D-(6′-O-caffeoil)glucopyranoside]
[1]
  IC50: 32 µM
PC12 cells; 100 μg/ml
  Ratio of viable treated cells over control: 4
PC12 cells; 500 μg/ml
  Ratio of viable treated cells over control: 10
PC12 cells; 1000 μg/ml
  Ratio of viable treated cells over control: 10
Whole blood
  IC50: 1.3 mg/mL (≈ 2080 µM)

## C[C@@H]1O[C@@H](O[C@@H]2[C@@H](O)[C@H](OCCc3ccc(O)c(O)c3)O[C@H](CO)[C@H]2OC(=O)/C=C/c2ccc(O)c(O)c2)[C@H](O)[C@H](O)[C@H]1O [Verbascoside, b-(3,4-dihydroxyphenyl)-ethyl-O-α-L-ramnopyranosyl (1″-3′)-b-D-(4′-O-caffeoil)-glucopyranoside]
[1]
  IC50: 33.6 µM
[2]
  Superoxide radical (IC50): 3.1 µg/mL
[3]
  Lipid peroxidation (IC50): 7.4 µg/mL
[4]
  Hydroxyl radial (IC50): 2.2 µg/mL
Whole blood
  IC50: 1.29 mg/mL (≈ 2070 µM)
